Where “and” joins values, the source holds several entries; their conditions need not be identical. Identical values can stand only once.
Tests used:
rASCT2 = molecular target: T1, rASCT2 (Rattus norvegicus, UniProt D3ZJ25); assay: Electrophysiology: inhibition of leak anion current in transfected HEK293 cells; format: cell-based; conditions: HEK293 cells, 0 mV, 130 mM NaSCN internal, 140 mM NaCl external, No current = no inhibition of anion leak current up to highest concentration tested (§ 20-50, || 100-400, # 1500-2500 µM); for Ki: read-out: Binding affinity Ki (apparent Ki)
T1 construct: expressed in transfected cells; host or cells: HEK293 (ATCC CRL-11268), transient transfection
T1 sequence (D3ZJ25 1-555): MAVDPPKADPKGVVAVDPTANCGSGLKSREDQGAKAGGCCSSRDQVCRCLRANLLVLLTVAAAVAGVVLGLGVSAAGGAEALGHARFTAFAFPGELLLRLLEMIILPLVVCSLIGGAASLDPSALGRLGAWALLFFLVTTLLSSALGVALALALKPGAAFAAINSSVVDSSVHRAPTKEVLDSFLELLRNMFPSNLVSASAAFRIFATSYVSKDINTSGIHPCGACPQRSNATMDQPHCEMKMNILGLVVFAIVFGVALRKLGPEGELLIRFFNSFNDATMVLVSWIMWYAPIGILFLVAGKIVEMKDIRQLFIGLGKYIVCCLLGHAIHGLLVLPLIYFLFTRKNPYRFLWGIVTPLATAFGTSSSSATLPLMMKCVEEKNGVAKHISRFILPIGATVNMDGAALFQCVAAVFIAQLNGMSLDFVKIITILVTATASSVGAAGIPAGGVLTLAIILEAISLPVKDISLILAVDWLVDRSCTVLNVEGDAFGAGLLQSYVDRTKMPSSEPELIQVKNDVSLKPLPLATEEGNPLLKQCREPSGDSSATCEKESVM
Experimental: (§1) Cell culture and transfection
(§2) Human embryonic kidney 293 (HEK293, ATCC CRL -11268) cells were cultured in DMEM media supplemented with 10% (v/v) fetal bovine serum (FBS), 2 mM glutamine, 1% penicillin streptomycin solution, 1 mM sodium pyruvate and non -essential amino acids. Cells were maintained at 370C in a fully humidified atmosphere containing 5% CO2. rASCT2, hASCT2, hASCT1, EAAT1, EAAT2, EAAT3, EAAT5 and YFP complementary DNAs were each used to transiently transfect HEK293 using POLYPLUS Jet-prime transfection reagent. Cells were analyzed using electrophysiological techniques 24-40 hours after transfection.
(§3) Electrophysiological techniques
(§4) Electrophysiological experiments were performed as described previously 1,2. Stock solutions of inhibitor was prepared in dimethyl sulfoxide (DMSO) up to 100 mM.
(§5) Dilutions to working concentrations were made using external buffer. The highest

hASCT2 = molecular target: T2, hASCT2 (Homo sapiens, UniProt Q15758); assay: as above; format: cell-based; conditions: for activity (in words, structure activity relationship): ASCT2, species not given; for Binding affinity Ki (apparent Ki) / Ki: HEK293 cells, 0 mV, 130 mM NaSCN internal, 140 mM NaCl external, No current = no inhibition of anion leak current up to highest concentration tested (§ 20-50, || 100-400, # 1500-2500 µM); for Ki: read-out: Binding affinity Ki (apparent Ki); for selectivity for hASCT2 over rEAAT1: ratio of Ki, hASCT2 versus rEAAT1
T2 construct: expressed in transfected cells; host or cells: HEK293 (ATCC CRL-11268), transient transfection
T2 sequence (Q15758 1-541): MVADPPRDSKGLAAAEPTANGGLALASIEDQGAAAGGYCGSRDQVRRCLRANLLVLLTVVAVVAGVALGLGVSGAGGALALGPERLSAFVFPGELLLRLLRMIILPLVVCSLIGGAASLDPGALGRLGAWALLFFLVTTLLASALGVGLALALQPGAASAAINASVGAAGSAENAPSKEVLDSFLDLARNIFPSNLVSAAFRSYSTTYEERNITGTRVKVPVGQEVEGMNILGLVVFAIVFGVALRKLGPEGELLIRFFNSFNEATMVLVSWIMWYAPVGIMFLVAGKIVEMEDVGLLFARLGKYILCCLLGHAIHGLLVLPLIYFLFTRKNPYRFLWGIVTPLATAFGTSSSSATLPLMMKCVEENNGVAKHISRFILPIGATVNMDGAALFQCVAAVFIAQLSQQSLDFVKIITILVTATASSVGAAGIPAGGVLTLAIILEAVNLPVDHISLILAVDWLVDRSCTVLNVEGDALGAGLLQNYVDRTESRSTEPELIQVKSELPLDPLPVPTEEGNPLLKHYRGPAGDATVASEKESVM
Experimental: as §1, §2, §3, §4, §5

Binding affinity Ki (apparent Ki) (hASCT2) | Ki (rASCT2) [µM] | Ki (hASCT2) | selectivity for hASCT2 over rEAAT1 (hASCT2) | SMILES | Binding affinity Ki (apparent Ki) (rASCT2) | activity (in words, structure activity relationship) (hASCT2)
– | 0.27 ± 0.05 | 1.05 ± 0.21 µM | – | O=C(O[C@@H]1CN[C@H](C(=O)O)C1)c1ccc(-c2ccc(C(F)(F)F)cc2)cc1 [ERA-5] | – | –
– | 0.97 ± 0.08 | 1.12 ± 0.11 µM | – | Cc1ccccc1-c1ccc(C(=O)O[C@@H]2CN[C@H](C(=O)O)C2)cc1 [ERA-6] | – | –
– | 18.8 ± 4.97 | 5.65 µM and 5.7 µM | sevenfold | O=C(O[C@@H]1CN[C@H](C(=O)O)C1)c1ccc(C(O)c2ccccc2)cc1 (some centres unmarked) [ERA-9] | – | –
– | 3.37 ± 0.41 | 2.94 ± 0.93 µM | threefold | O=C(Nc1ccc(C(=O)O[C@@H]2CN[C@H](C(=O)O)C2)cc1)c1ccc(C(F)(F)F)cc1 [ERA-11] | – | –
– | 3.68 ± 0.73 | 4.17 ± 0.46 µM | – | O=C(O[C@@H]1CN[C@H](C(=O)O)C1)c1ccc(Oc2ccccc2)cc1 [ERA-16] | – | –
– | 4.33 ± 1.3 | 22.6 ± 3.66 µM | – | N[C@@H](COC(=O)c1ccc(NC(=O)c2ccccc2)cc1)C(=O)O [ERA-21] | – | –
– | 290 ± 16.5 | 186 ± 17.2 µM | – | N[C@@H](COC(=O)c1ccccc1)C(=O)O [ERA-25] | – | –
– | 266 ± 42.7 | 690 ± 54.2 µM | – | N[C@@H](COC(=O)c1cccnc1)C(=O)O [ERA-28] | – | –
No current | – | – | – | O=C(O[C@@H]1CN[C@H](C(=O)O)C1)C(c1ccccc1)c1ccccc1 [ERA-29] | No current | no activity
No current | 8.17 ± 1.05 | – | – | O=C(O[C@@H]1CN[C@H](C(=O)O)C1)c1ccc(OCc2ccccc2)cc1 [ERA-31] | – | –
– | 121 ± 29.9 | > 500 µM | – | O=C(O[C@H]1CN[C@H](C(=O)O)C1)c1ccc(C(=O)c2ccccc2)cc1 [ERA-35] | – | –

SMILES | Binding affinity Ki (apparent Ki) (hASCT2) | Ki (rASCT2) [µM] | Ki (hASCT2) | selectivity for hASCT2 over rEAAT1 (hASCT2) | Binding affinity Ki (apparent Ki) (rASCT2) | activity (in words, structure activity relationship) (hASCT2)
O=C(O[C@@H]1CN[C@H](C(=O)O)C1)c1ccccc1-c1ccccc1 [ERA-3] | No current | – | – | – | No current | inactive
O=C(O[C@@H]1CN[C@H](C(=O)O)C1)c1ccc(-c2ccc(F)cc2)cc1 [ERA-4] | – | 0.65 ± 0.04 | 0.74 ± 0.09 µM | – | – | –
O=C(O[C@@H]1CN[C@H](C(=O)O)C1)c1ccc(-c2ccccc2)cc1 [Lc-BPE, L-cis hydroxyproline biphenyl ester] | – | 0.74 ± 0.11 | 0.86 ± 0.11 µM | – | – | –
